#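 Values below derive from 48-hour exposures of cells grown in 96-well plates, with endpoints linearly interpolated between the two concentrations bracketing the appropriate inhibition level. Here, GI50 denotes the concentration required for 50% inhibition of growth. TGI: total growth inhibition.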
# What was measured:
# Assay in all cases: NCI anticancer screen, dose series, 48 h
# UACC-257 melanoma = system: UACC-257 melanoma
# MCF7 breast = system: MCF7 breast
# SF-539 CNS = system: SF-539 CNS
# NCI/ADR-RES ovarian = system: NCI/ADR-RES ovarian
# ACHN renal = system: ACHN renal
# KM12 colon = system: KM12 colon
# NCI-H226 lung = system: NCI-H226 lung
# HL-60(TB) leukemia = system: HL-60(TB) leukemia
# M14 melanoma = system: M14 melanoma
# NCI-H23 lung = system: NCI-H23 lung
SMILES,GI50 (UACC-257 melanoma) [µM],TGI (UACC-257 melanoma) [µM],GI50 (MCF7 breast) [µM],TGI (MCF7 breast) [µM],GI50 (SF-539 CNS) [µM],TGI (SF-539 CNS) [µM],GI50 (NCI/ADR-RES ovarian) [µM],TGI (NCI/ADR-RES ovarian) [µM],GI50 (ACHN renal) [µM],TGI (ACHN renal) [µM],GI50 (KM12 colon) [µM],TGI (KM12 colon) [µM],GI50 (NCI-H226 lung) [µM],TGI (NCI-H226 lung) [µM],GI50 (HL-60(TB) leukemia) [µM],TGI (HL-60(TB) leukemia) [µM],GI50 (M14 melanoma) [µM],TGI (M14 melanoma) [µM],GI50 (NCI-H23 lung) [µM],TGI (NCI-H23 lung) [µM]
CC(C)(Oc1cccc(N2CCC[C@@H](C(=O)N(Cc3ccc(-c4cn[nH]c4)cc3)C3CC3)C2)c1)C(=O)N1CCNCC1,12.2,25.9,11.6,25.4,11.4,24.2,24.1,73.6,16.1,29.6,14.8,28.8,5.43,21,13.8,> 100,14.9,30.1,14,28.9
COc1cccc(N2C(=N)/C(=C3\Nc4ccccc4S3)CC2=O)c1,> 100,> 100,6.65,> 100,5.4,> 100,15.8,> 100,4.93,> 100,7.48,> 100,38.3,> 100,4.85,> 100,> 100,> 100,39.4,> 100
CCOC(=O)C(Cc1ccccc1)n1c(O)c(/C=N/c2ncc(Cc3ccc(Cl)cc3Cl)s2)sc1=S (centres undefined),2.72,8.57,2.36,> 100,2.58,6.95,2.56,15.1,2.92,> 100,1.84,11.6,3.29,> 100,2.29,7.06,3.02,16.7,1.9,12.4
Cc1cc(NS(=O)(=O)c2ccc(-c3cnc(C4CC4)o3)cc2)ccc1Cl,1.77,18.2,0.0708,12.2,0.281,4.09,0.181,12.5,0.586,14.6,0.187,13.4,0.985,17.5,0.232,1.23,0.192,15.9,0.57,15.6
COc1cc2c3c(n(CCCNCCCCN)c(=O)c2cc1OC)-c1cc2c(cc1C3=O)OCO2,16.8,54.7,0.0829,22.5,0.191,2.74,17.3,> 90.8,0.163,16.6,4.58,21.7,1.6,7.44,0.335,–,9.19,27.6,1.63,10.7
CCc1nc(N)nc(N)c1-c1ccc(N2CCNCC2)c([N+](=O)[O-])c1,–,57.7,–,> 79.1,–,> 100,–,> 100,–,> 100,–,> 100,–,> 100,–,> 85.2,–,31.9,–,> 100
O=C(Nc1nc2ccc(OC(F)(F)F)cc2s1)c1ccc(F)cc1,3.57,26.7,2.12,18.2,2.26,6.95,3.35,16.4,2.4,6.18,2.69,> 100,2.81,> 100,3.04,9.29,4.4,> 100,2.9,8.73
C=C(CC)C(=O)c1ccc(OCC(=O)O)c(Cl)c1Cl,–,55.4,–,20.8,–,24.4,–,> 61.9,–,> 72.9,–,21.4,–,45.8,–,> 85,–,45,–,> 56.2
COC(=O)NC1=Nc2ccccc2C(=O)NN1,–,> 100,–,> 100,–,> 100,–,> 100,–,> 100,–,> 100,–,> 100,–,> 100,–,> 100,–,> 100
CCCCNC(=O)CC1=C(C)/C(=C/c2[nH]c(-c3ccc[nH]3)cc2OC)N=C1C,2.26,4.54,2.7,9.39,2.75,9.31,3.02,9.89,2.26,5.64,1.8,10.6,2.74,8.77,2.84,6.87,1.83,3.91,3.03,21
CCN1CCCCCCCCCC(=N/O)/C(=N\O)C1,–,> 100,–,> 100,–,> 100,–,> 100,–,> 100,–,> 100,–,> 100,–,> 100,–,> 100,–,> 100

# Reference: PubChem BioAssay (NCI)
